Measurements taken from PMC10447463, “Data-mining unveils structure–property–activity correlation of viral infectivity enhancing self-assembling peptides” (Nature Communications, 2023).
Like-named read-outs stand apart in the source and are kept apart here.

Experiments:
[1] = test system: HIV-1 infection of TZM-bl cells; assay: HIV-1 infectivity enhancement assay, β-galactosidase luminescence; type: cell-based
[2] = type: physicochemical; set-up: key to Fibril / Fibril Formation / TEM 2cat / Fibril: 1 = fibrils present; 0 non-fibrillar structures; details: for Fibril / Fibril Formation: TEM, 1 mg/mL, uranyl acetate stain, qualitative
[3] = Zeta-potential measurement; type: physicochemical; details: for Zeta-pot. / mV: zeta potential of peptide, Fig S15 source data; for Zeta pot. / mV: 1 mg/mL in PBS pH 7.4 from 10 mg/mL DMSO stock, 1 d RT, 60 µL diluted in 600 µL 1 mM KCl, Zetasizer Nano ZS, Smoluchowski, mean of triplicate
How it was run: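 Peptides diluted from DMSO stock into PBS pH 7.4 to 1 mg/mL and aged 1 d at RT, then diluted into 1 mM aqueous KCl. Zeta potential derived from electrophoretic mobility via Smoluchowski; triplicates, averaged over two independent experiments.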

[4] = Turbidity, derived count rate of scattered light; type: physicochemical; details: for Count Rate / kcps: derived count rate of scattered light at 633 nm, 173°, from zeta-potential measurement, 0.1 mg/mL in 1 mM KCl after 1 d at 1 mg/mL in PBS, turbidity / microscopic aggregation, mean of triplicate; for Log Count Rate: log of derived count rate; for Count Rate: turbidity
How it was run: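 Samples: 1 mg/mL in PBS pH 7.4 (from DMSO), 1 d at RT, then diluted in 1 mM KCl immediately before measurement. Triplicates, two independent runs averaged.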

[5] = infectivity class (low / medium / high) of each library peptide; main list in c1-c6, same classes repeated in sub-lists of sequences containing the hydrophobicity/charge patterns P+,H0,P+,H0,P0,H0,P0; P+,H0,P0,H0,P0,H0,P0; P+,H0,P0,H0
[6] = infectivity enhancement relative to EF-C (=1); Feb2021 run
[7] = infectivity n-fold relative to virus only; Feb2021 run
[8] = log10 of HIV-1 infection of TZM-bl cells relative to EF-C; Fig S15 source data; asymmetric std dev errors
[9] = log10 of infectivity relative to EF-C; Feb2021 run
[10] = derived count rate from zeta measurement, mean
[11] = fibril-forming peptides with positive zeta-potential, low count rate
[12] = log10 of infection relative to EF-C, Figure 7B
[13] = n-fold infection vs virus only, relative to that of EF-C, 1.3 µM peptide
[14] = Feb2021; figures match the 1.3 µM column
[15] = Feb2021; infectivity relative to virus only
[16] = Feb2021; log10 of infectivity relative to EF-C
[17] = Feb2021; n-fold infectivity relative to EF-C
[18] = infectivity class (low / medium / high) of the peptide in the sequence-pattern analysis, Fig. S22-A4; class limits not given
[19] = derived count rate of scattered light
[20] = Fig S8 panels B, D; infectivity enhancement relative to EF-C
[21] = Fig S8 panels B, D; infectivity n-fold relative to virus alone
[22] = Fig S8 panels A, C, asymmetric log errors
[23] = Fig S8 panels B, D, derived count rate of scattered light
[24] = HIV-1 infection relative to EF-C; Fig 23 plot, panels A and B; mean of 3 values
[25] = HIV-1 infection relative to EF-C; Fig 23 plot, single data point, replicate 1
[26] = HIV-1 infection relative to EF-C; Fig 23 plot, single data point, replicate 2
[27] = HIV-1 infection relative to EF-C; Fig 23 plot, single data point, replicate 3
[28] = log10 of infection relative to EF-C, Figure 6C
[29] = log10 of derived count rate of scattered light, Figure 6C
[30] = logarithm of count rate in kcps
[31] = Feb2021 run; infectivity n-fold relative to virus alone
[32] = Feb2021 run; log10 of infectivity relative to EF-C
[33] = Feb2021 run; n-fold infectivity relative to EF-C
[34] = derived count rate of scattered light, mean, std deviation in separate column

Row | Substance | infectivity [1, 5] | Log10 Inf. rel. to EF-C [1, 8] | TEM: 1= fibrils, 0= aggregates (micelle), 0.5 = aggregates and fibrils, -1 = nothing obersved, STD prep [2] | Zeta category ( +1 = if > 4 mV;-1 = if < -4 mV; 0 = -4mV to 4 mV) [3] | Zeta-pot. / mV [3] [mV] | Log10 Infection Rel EF-C [1, 12] | Inf. rel. EF-C [1, 13] | Fibril / Fibril Formation [2] | Zeta pot. / mV [3] [mV] | Zeta-Potential / mV ([3]; mean, Figure 7B) [mV] | Count Rate / kcps [4] [kcps] | Absolute Infectivity / RLU /s (Feb2021) [1, 14] [RLU /s] | n-fold to virus (Feb2021) [1, 15] | Log10 of Rel to EFC (Feb2021) [1, 16] | Rel-to EFC (Feb-2021) [1, 17] | Zeta Pot. / mV [3] [mV] | Zeta Count Rate Category ([4]; category 1 / 0, no key given) | Zeta Count Rate / kcps [4, 19] [kcps] | also measured
1 | EIEIQINMWQ [VH8] | medium | -0.881 | 0.5 | -1 (-1 = if < -4 mV) | -19.13 | – | – | – | – | – | – | – | – | – | – | – | – | – | Rel-to EFC (Feb-2021) [1, 6]: 0.1315; n-fold to virus (Feb2021) [1, 7]: 5.526; Log10 of Rel to EFC (Feb2021) [1, 9]: -0.881; Zeta Pot. / mV ([3]; mean, Std in separate column): -19.13 mV; Zeta Count Rate / kcps [4, 10]: 1264 kcps; Zeta Count Rate Category ([4]; key not given): 1
2 | GYVIIK [reference compound] | – | – | – | – | – | -0.99 | 0.10 | 0 | 9.9 | 9.88 | 30 | – | – | – | – | – | – | – | infectivity enhancement, in words [1, 11]: do not enhance infectivity
3 | HHHHKAKAKAKAWWWW [TM8] | – | -1.048 | 0.5 | 1 (+1 = if > 4 mV) | 17.4 | – | – | – | – | – | – | 3233 | 3.76 | -1.048 | 0.08948 | 17.4 | 1 | 658.9 | infectivity [1, 18]: low
4 | HHHHKAKAKAKAYYYY [TM10] | – | -1.883 | 0 | 1 (+1 = if > 4 mV) | 7.03 | – | – | – | – | – | – | 203.3 | 0.5495 | -1.883 | 0.01308 | 7.03 | 1 | 240.9 | infectivity [1, 18]: low
5 | HHHHKIKIQINMYYYY [TM16] | high | 0.04454 | 1 | 1 (+1 = if > 4 mV) | 7.807 | – | – | – | – | – | – | 22408.88889 | 46.56 | 0.04454 | 1.108 | 7.807 | 1 | 5659 | Rel-to EFC [1, 20]: 1.108; n-fold to virus [1, 21]: 46.56; infectivity [1, 18]: high; Log Count Rate [4, 22]: 3.753; Log Count Rate ([4]; Fig S8 panels B, D): 3.753; Count Rate [4, 23]: 5658.77
6 | HIHIQIC [CN12] | medium | -0.5672 | 1 | 0 (0 = -4mV to 4 mV) | -3.687 | – | – | – | – | – | – | 4621 | 11.38 | -0.5672 | 0.2709 | -3.687 | 1 | 260.6 | Rel-to EFC [1, 20]: 0.2709; n-fold to virus [1, 21]: 11.38; Log Count Rate [4, 22]: 2.416; Log Count Rate ([4]; Fig S8 panels B, D): 2.416; Count Rate [4, 23]: 260.57
7 | HLHLPLL [CN14] | low | -1.9991 | 0.5 | -1 (-1 = if < -4 mV) | -9.053 | – | – | – | – | – | – | 133.3 | 0.4211 | -1.999 | 0.01002 | -9.053 | 1 | 200 | –
8 | IFQINS [reference compound] | – | – | – | – | – | -1.21 | 0.06 | 1 | -11.0 | -10.98 | 36 | – | – | – | – | – | – | – | –
9 | IIIK [reference compound] | – | – | – | – | – | -1.29 | 0.05 | 0 | -3.8 | -3.82 | 26 | – | – | – | – | – | – | – | –
10 | IIIQGK [reference compound] | – | – | – | – | – | -1.21 | 0.06 | 0 | -7.6 | -7.56 | 10 | – | – | – | – | – | – | – | –
11 | IKFLSVN [reference compound] | – | – | – | – | – | -1.16 | 0.07 | 1 | 5.9 | 5.9 | 137 | – | – | – | – | – | – | – | infectivity enhancement, in words [1, 11]: do not enhance infectivity
12 | KAKLTCT | – | – | – | – | – | – | 0.07 | 0 | -2.2992 | – | 16.8 | – | – | – | – | – | – | – | Inf. rel. EF-C [1, 24]: 0.0665; Inf. rel. EF-C [1, 25]: 0.09602; Inf. rel. EF-C [1, 26]: 0.05821; Inf. rel. EF-C [1, 27]: 0.04527; Log10 Infection Rel EF-C [1, 28]: -1.177; Zeta-Potential / mV ([3]; mean, Figure 6C): -2.2992 mV; Log10 Count Rate [4, 29]: 1.225; Log10 Count Rate [4, 30]: 1.225
13 | KAKQAANMWQ [JG6] | low | -1.514 | 0.5 | -1 (-1 = if < -4 mV) | -12.9 | – | – | – | – | – | – | 343.3 | 1.2875 | -1.514 | 0.03064 | -12.9 | 1 | 690.5 | –
14 | KAQCTLP | – | – | – | – | – | – | 0.07 | 0 | -8.503 | – | 97.27 | – | – | – | – | – | – | – | Inf. rel. EF-C [1, 24]: 0.07031; Inf. rel. EF-C [1, 25]: 0.07607; Inf. rel. EF-C [1, 26]: 0.09243; Inf. rel. EF-C [1, 27]: 0.04244; Log10 Infection Rel EF-C [1, 28]: -1.153; Zeta-Potential / mV ([3]; mean, Figure 6C): -8.503 mV; Log10 Count Rate [4, 29]: 1.988; Log10 Count Rate [4, 30]: 1.988
15 | KFKFQFFF [TG12] | medium | -0.3936 | 1 | 1 (+1 = if > 4 mV) | 13.27 | – | – | – | – | – | – | 8657 | 16.97 | -0.3937 | 0.404 | 13.27 | 1 | 3039 | n-fold to virus (Feb2021) [1, 31]: 16.97; Log10 of Rel to EFC (Feb2021) [1, 32]: -0.3937; Rel-to EFC (Feb-2021) [1, 33]: 0.404; Rel-to EFC (Feb-2021) [1, 6]: 0.404; n-fold to virus (Feb2021) [1, 7]: 16.97; Log10 of Rel to EFC (Feb2021) [1, 9]: -0.3937; Zeta Pot. / mV ([3]; mean, Std in separate column): 13.27 mV; Zeta Count Rate / kcps [4, 10]: 3039 kcps; Zeta Count Rate / kcps [4, 34]: 3039 kcps; Zeta Count Rate Category ([4]; key not given): 1
16 | KFKFQFN [BL7] | low | -1.744 | 1 | 1 (+1 = if > 4 mV) | 12.7 | – | – | – | – | – | – | – | – | – | – | – | – | – | n-fold to virus (Feb2021) [1, 31]: 0.757; Log10 of Rel to EFC (Feb2021) [1, 32]: -1.744; Rel-to EFC (Feb-2021) [1, 33]: 0.01802; Zeta Pot. / mV ([3]; mean, Std in separate column): 12.7 mV; Zeta Count Rate / kcps [4, 34]: 50.7 kcps
